Test results reported in ChEMBL document CHEMBL1123484 (J Med Chem, 1986).

Tests used:
L1210 ( R81) = test: Compound was tested for its ability to inhibit growth of L1210/R81 cells; type: functional, cell-based; conditions: Mus musculus
L1210 = test: Compound was tested for its ability to inhibit growth of L1210 mouse leukemia cells; type: functional, cell-based
[1] = molecular target: T1, Folylpolyglutamate synthase, mitochondrial (Mus musculus) (UniProt P48760); test: Compound (500 uM folate
T1 sequence (whole entry): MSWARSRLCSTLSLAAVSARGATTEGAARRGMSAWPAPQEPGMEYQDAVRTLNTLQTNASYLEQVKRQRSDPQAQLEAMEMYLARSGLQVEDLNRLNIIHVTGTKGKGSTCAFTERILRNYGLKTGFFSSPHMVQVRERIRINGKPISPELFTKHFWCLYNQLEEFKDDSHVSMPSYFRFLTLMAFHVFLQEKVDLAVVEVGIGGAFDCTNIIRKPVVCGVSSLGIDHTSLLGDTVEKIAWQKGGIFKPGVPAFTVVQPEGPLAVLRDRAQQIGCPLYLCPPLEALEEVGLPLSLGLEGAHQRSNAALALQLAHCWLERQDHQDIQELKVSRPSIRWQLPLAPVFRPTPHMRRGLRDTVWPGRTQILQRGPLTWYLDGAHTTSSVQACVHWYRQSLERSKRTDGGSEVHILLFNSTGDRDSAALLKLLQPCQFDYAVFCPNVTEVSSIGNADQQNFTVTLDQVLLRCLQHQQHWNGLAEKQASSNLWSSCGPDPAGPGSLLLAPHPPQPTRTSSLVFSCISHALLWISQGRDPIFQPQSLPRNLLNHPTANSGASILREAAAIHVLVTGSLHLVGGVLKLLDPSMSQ

Dihydrofolate reductase = molecular target: T2, Dihydrofolate reductase (Mus musculus, UniProt P00375); test: biochemical
T2 sequence (P00375 whole entry): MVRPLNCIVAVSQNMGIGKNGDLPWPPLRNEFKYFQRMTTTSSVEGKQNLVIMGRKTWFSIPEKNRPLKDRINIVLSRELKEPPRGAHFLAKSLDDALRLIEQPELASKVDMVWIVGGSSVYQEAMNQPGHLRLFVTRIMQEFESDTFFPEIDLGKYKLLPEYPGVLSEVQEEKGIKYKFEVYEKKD
Description: Compound was tested for its ability to inhibit purified dihydrofolate reductase(DHFR) from L1210/R81 cells

[2] = molecular target: T3, Folylpolyglutamate synthase, mitochondrial (Mus musculus, UniProt P48760); test: Compound was tested for its ability to inhibit Folyl-polyglutamate synthase from mouse liver
T3 sequence (P48760 whole entry): T1 sequence (whole entry)

| SMILES | IC50 (L1210 ( R81)) | IC50 (L1210) | inhibition [1] | IC50 (Dihydrofolate reductase) | Ki [2] |
| --- | --- | --- | --- | --- | --- |
| CN(Cc1cnc2nc(N)nc(N)c2n1)c1ccc(C(=O)NC(CCN)C(=O)O)cc1 (stereo unspecified) | 290000 nM | 2420 nM | < 10% | 120 nM |  |
| NCCCC(NC(=O)c1ccc(NCc2cnc3nc(N)nc(N)c3n2)cc1)C(=O)O (stereo unspecified) | 32000 nM | 1300 nM |  |  | 150 nM |
| CN(Cc1cnc2nc(N)nc(N)c2n1)c1ccc(C(=O)NC(CCCCN)C(=O)O)cc1 (stereo unspecified) | 220000 nM | 400 nM | < 10% | 65 nM |  |
| CN(Cc1cnc2nc(N)nc(N)c2n1)c1ccc(C(=O)NC(CN)C(=O)O)cc1 (stereo unspecified) | 405000 nM | 440 nM | < 10% | 180 nM |  |
| CN(Cc1cnc2nc(N)nc(N)c2n1)c1ccc(C(=O)N[C@@H](CCC(=O)O)C(=O)O)cc1 [METHOTREXATE] | 220000 nM |  |  |  |  |
| CN(Cc1cnc2nc(N)nc(N)c2n1)c1ccc(C(=O)NC(CCCN)C(=O)O)cc1 (stereo unspecified) | 86000 nM | 1300 nM |  | 160 nM | 20400 nM |
| Nc1nc(N)c2nc(CNc3ccc(C(=O)N[C@@H](CCC(=O)O)C(=O)O)cc3)cnc2n1 [AMINOPTERIN] | 84000 nM |  |  |  |  |
